Experimental findings from ChEMBL document CHEMBL3727367, “Hydrazide compounds” (2007) are described below.

Assay [1] deals with T1, Beta-adrenergic receptor kinase 1 (Homo sapiens, UniProt P25098).
T1 sequence (P25098 whole entry): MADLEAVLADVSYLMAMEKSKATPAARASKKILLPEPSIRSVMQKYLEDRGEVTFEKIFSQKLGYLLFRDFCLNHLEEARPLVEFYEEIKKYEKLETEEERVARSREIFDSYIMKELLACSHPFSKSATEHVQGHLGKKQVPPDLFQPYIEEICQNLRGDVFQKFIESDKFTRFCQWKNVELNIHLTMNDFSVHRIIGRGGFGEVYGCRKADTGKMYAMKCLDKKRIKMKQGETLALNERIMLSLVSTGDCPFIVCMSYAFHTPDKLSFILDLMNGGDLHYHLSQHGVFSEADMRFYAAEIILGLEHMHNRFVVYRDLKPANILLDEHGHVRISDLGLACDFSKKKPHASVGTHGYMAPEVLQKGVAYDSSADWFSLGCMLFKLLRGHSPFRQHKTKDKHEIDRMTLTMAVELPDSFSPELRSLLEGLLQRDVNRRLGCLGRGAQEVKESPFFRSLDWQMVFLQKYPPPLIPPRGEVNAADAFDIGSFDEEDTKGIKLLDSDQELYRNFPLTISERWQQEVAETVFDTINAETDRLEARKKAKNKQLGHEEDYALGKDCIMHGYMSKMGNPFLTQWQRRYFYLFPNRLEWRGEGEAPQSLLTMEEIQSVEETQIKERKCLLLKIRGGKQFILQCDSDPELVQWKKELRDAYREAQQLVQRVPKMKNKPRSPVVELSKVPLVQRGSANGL
Briefly: Inhibition of human GRK2 after 90 to 120 mins by Kinase-Glo assay.

Assay [2] addresses T2, Protein-serine/threonine kinase (Sus scrofa) (UniProt F1RUX3).
T2 sequence (whole entry): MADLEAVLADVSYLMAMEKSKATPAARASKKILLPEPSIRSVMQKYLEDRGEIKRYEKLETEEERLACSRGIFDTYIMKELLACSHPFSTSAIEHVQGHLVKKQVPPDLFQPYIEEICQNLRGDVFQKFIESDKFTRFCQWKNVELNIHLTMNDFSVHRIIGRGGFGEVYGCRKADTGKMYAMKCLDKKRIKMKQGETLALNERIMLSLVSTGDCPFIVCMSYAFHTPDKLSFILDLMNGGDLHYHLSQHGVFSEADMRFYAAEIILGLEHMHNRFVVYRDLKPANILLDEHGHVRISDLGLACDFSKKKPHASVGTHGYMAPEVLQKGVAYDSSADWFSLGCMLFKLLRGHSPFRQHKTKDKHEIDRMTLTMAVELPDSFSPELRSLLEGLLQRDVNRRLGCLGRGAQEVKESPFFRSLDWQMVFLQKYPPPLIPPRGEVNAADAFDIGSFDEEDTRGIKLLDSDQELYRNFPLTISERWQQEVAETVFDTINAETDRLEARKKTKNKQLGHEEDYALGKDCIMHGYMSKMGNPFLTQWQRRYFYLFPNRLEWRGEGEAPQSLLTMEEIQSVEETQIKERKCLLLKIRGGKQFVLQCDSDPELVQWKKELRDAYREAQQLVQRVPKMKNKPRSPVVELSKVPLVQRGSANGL
Kind of assay: Inhibition of GRK2 in porcine trabecular meshwork cells assessed as F-actin depolymerization at 50 uM after 20 mins by Alexa-fluor 488-labelled phalloidin/DAPI staining assay relative to control.

Assay [3] has as its system Felis catus. Briefly: Antiglaucoma activity in cat assessed as decrease in intraocular pressure administered topically twice per day on eye measured after 1 to 23 hrs by pneumatonometer. The format is functional, organism-based.
Assay [4] concerns Felis catus. Briefly: Antiglaucoma activity in cat assessed as decrease of allergic symptoms administered topically twice per day on eye. Type of assay: functional, organism-based.
Assay [5] deals with Felis catus. Briefly: Antiglaucoma activity in cat assessed as decrease of dry eye syndrome administered topically twice per day on eye. The format is functional, organism-based.
For assay [6], the target named is G protein-coupled receptor kinase 6 (Homo sapiens, UniProt P43250). Briefly: Inhibition of GRK6 (unknown origin) after 90 to 120 mins by Kinase-Glo assay.
G protein-coupled receptor kinase 6, sequence (P43250 whole entry): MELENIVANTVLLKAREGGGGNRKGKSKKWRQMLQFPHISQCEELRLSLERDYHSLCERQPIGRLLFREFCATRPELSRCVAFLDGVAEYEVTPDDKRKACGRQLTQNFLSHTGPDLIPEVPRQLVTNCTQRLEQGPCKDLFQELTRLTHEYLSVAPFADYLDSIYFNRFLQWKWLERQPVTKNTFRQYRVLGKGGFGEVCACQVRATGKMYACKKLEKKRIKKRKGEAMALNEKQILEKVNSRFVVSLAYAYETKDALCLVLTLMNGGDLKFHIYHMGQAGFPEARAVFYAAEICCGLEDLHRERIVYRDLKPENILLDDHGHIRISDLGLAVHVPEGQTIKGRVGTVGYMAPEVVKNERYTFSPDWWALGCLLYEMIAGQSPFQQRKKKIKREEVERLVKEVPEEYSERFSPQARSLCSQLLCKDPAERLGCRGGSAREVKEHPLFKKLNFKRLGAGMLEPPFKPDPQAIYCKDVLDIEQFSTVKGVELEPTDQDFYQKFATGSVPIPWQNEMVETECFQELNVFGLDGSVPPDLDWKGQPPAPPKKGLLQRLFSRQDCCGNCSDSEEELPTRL
The subject of assay [7] is Felis catus. Briefly: Antiglaucoma activity in cat assessed as decrease in intraocular pressure administered topically 4 times per day on eye measured after 1 to 23 hrs by pneumatonometer. Type of assay: functional, organism-based.
Assay [8] relates to Felis catus. Briefly: Antiglaucoma activity in cat assessed as decrease of hyperemia administered topically. The format is functional, organism-based.
Assay [9] addresses T3, Beta-adrenergic receptor kinase 1 (Homo sapiens) (UniProt P25098).
T3 sequence (whole entry): T1 sequence (P25098 whole entry)
Briefly: Inhibition of GRK2 in HEK293 cells overexpressing beta 2 adrenergic receptor assessed as increase in c-AMP accumulation in presence of isoproterenol. The format is cell-based.

The test system of assay [10] is Felis catus. Briefly: Antiglaucoma activity in cat assessed as decrease of redness administered topically. Type of assay: functional, organism-based.
The test system of assay [11] is Felis catus. Kind of assay: Antiglaucoma activity in cat assessed as decrease of ocular irritation administered topically. The format is functional, organism-based. The settings on record: Eye.
The target of assay [12] is G protein-coupled receptor kinase 5 (Homo sapiens, UniProt P34947). Briefly: Inhibition of GRK5 (unknown origin) after 90 to 120 mins by Kinase-Glo assay.
G protein-coupled receptor kinase 5, sequence (P34947 whole entry): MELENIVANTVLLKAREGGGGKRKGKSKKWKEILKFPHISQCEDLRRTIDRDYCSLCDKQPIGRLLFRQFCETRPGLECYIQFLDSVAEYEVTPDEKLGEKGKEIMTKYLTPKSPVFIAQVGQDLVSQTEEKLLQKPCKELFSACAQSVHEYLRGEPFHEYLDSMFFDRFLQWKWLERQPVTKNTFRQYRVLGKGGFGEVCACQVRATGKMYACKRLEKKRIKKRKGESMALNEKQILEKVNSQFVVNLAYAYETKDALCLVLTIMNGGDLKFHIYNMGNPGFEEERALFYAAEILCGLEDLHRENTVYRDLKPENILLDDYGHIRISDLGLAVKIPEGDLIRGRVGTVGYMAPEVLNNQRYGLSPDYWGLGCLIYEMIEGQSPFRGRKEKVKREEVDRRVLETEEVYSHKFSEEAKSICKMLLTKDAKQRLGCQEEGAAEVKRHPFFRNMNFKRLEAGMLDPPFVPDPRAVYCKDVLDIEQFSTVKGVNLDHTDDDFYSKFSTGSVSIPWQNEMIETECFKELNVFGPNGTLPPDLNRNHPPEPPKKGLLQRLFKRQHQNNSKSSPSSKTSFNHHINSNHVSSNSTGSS

Calls of active or inactive are those of the source. The calls are words filed in the database; no cut-off is given here.

The Ki is a dissociation constant, usually derived from enzyme kinetics or from competition with a known ligand. Low values mean a stronger hold on the target, high ones a looser hold on the target. For `CCc1cccc(NCC(=O)N/N=C/c2c(Cl)cncc2Cl)c1`, the Ki in assay [1] is > 10 µM.
On to `C/C(=N\NC(=O)CNc1cccc(C(=O)Nc2ccccc2)c1)c1ccncc1`, for which the “GRK2 inhibition activity call (active/not active)” value in assay [2] was “inactive”.
The same measure, in the same setting: to `O=C(CNc1cccc(C(=O)Nc2cccnc2)c1)N/N=C/c1ccncc1` belongs “Active”; to `COc1ccc(Oc2cccc(NCC(=O)NN=Cc3ccncc3)c2)cc1` (mixture of isomers), “inactive”.
On the same count and under the same terms, next, `CNC(=O)c1cccc(NCC(=O)N/N=C/c2c(Cl)cncc2Cl)c1`: “inactive”.
Regarding `NC(=O)c1ccc(NCC(=O)N/N=C/c2c(Cl)cncc2Cl)cc1`, in [3], the outcome was Active.
Turning to `Cc1ccc(Oc2cccc(NCC(=O)N/N=C/c3ccncc3)c2)cc1`, the result in assay [4] and in assay [5] was Active.
In the case of `COc1cc(/C=N/NC(=O)CNc2cccc(Cl)c2)nc(OC)n1`, in [2], the “GRK2 inhibition activity call (active/not active)” value was “inactive”.
In the case of `O=C(CNc1cccc(C(=O)Nc2ccccc2)c1)N/N=C/c1c(Cl)cncc1Cl`, the Ki in [6] was > 10 µM. In assay [2], the “GRK2 inhibition activity call (active/not active)” value is “Active”.
Regarding `O=C(CNc1cccc(C(=O)NCCN2CCOCC2)c1)N/N=C/c1c(Cl)cncc1Cl`, the “GRK2 inhibition activity call (active/not active)” value in [2] is “inactive”.
As to `O=C(CNc1cccc(OCc2ccccc2)c1)N/N=C/c1ccncc1`, the Ki in assay [6] was > 10 µM.
Take `O=C(CNc1cccc(C(=O)NCCN2CCOCC2)c1)N/N=C/c1ccncc1`: the result in assay [7] was Active.
As for `O=C(CNc1ccc(Oc2ccccc2)cc1)N/N=C/c1c(Cl)cncc1Cl`, the “GRK2 inhibition activity call (active/not active)” value in assay [2] was “inactive”.
As to `NC(=O)c1cccc(NCC(=O)N/N=C/c2ccncc2)c1`, the result in assay [8], in assay [10] and in [11] was Active. In assay [9], the inhibition entry is “Active”.
With `O=C(CNc1cccc(C(=O)Nc2ccccc2)c1)N/N=C/c1ccncc1`, the Ki in [12] is > 10 µM. In addition, the “GRK2 inhibition activity call (active/not active)” value in assay [2] was “Active”.
